This is an account of results in patent USRE46228E1, “Pigmentation-regulating compounds” (LIPOTEC, S.A., priority 2007, dated 2016).

In assay [1] the target is T1, endogenous tyrosinase extracted from human melanocytes (Homo sapiens, UniProt P14679).
T1 construct: The endogenous tyrosine of the human melanocytes seeded at a confluence of 95% is extracted; endogenous in cells; host or cells: human melanocytes (cultured; extract used)
T1 sequence (P14679 19-529): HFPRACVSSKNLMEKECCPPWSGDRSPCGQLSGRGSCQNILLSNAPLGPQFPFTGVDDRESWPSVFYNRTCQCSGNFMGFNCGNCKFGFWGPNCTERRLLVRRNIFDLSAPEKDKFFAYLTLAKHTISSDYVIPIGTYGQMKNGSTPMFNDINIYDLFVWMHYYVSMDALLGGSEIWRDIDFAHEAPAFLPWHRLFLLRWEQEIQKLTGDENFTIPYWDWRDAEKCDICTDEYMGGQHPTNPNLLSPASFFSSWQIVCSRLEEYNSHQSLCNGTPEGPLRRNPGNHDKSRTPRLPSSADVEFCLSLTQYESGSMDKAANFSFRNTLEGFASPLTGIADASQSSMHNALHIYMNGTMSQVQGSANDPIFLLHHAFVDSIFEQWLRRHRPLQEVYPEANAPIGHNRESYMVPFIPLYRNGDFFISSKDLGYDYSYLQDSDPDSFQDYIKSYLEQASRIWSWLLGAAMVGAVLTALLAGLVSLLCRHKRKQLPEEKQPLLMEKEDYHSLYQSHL
Kind of assay: Activity assay on endogenous tyrosinase extracted from human melanocytes (L-Dopa substrate, absorbance 475 nm). In kind it is biochemical. To be noted: 1 mM compound; 30 min incubation with enzyme; one hour after adding L-Dopa; relative to control (100). On the procedure:
The human melanocytes are cultured in DMEM medium supplemented with 10% FBS, 1% penicillin/streptomycin and 100 nM PMA. […] The endogenous […] of the human melanocytes seeded at a confluence of 95% is extracted. The assay is performed after extracting and quantifying the enzymatic content. […] To check the enzymatic activity after the treatment, the synthetic L-Dopa (10 mM) substrate is added, measuring absorbance at a wavelength of 475 nm one hour after having added L-Dopa. This measurement allows evaluating the melanin content produced.

The subject of another assay is human melanocytes. Kind of assay: Depigmenting efficacy in human melanocyte cultures (microscopy count of melanin-containing cells). To be noted: 0.1 mM compound, 5 days, fresh medium daily; normalized to control sample (0). In kind it is cell-based. On the procedure: The melanin content was is seen directly by means of microscopy using a 40 magnification lens. The depigmenting efficacy was is determined by counting the number of cells containing melanin and the total number of cells, and the obtained results were are normalized in relation to the whitening efficacy of a control sample.

Another assay concerns human keratinocytes. Kind of assay: Photoprotecting efficacy in human keratinocyte cultures (solar simulation irradiation, Neutral Red viability). In kind it is cell-based. To be noted: 150 μg/mL. Here is the method: The human keratinocytes were maintained in culture for 24 hours in 96 well plates to form monolayers and the cells were pre-incubated in the dark with 150 μg/mL of 7-methoxy-6-palmitoyl-2,2-dimethylchromane or saline phosphate buffer (control) for one hour at 37° C. and humidified air with 5% CO2. The cells were then irradiated with a solar simulation lamp with an energy of 37 J/cm^2 at room temperature for 150 minutes. A control plate was maintained in the dark for the same time at room temperature. The medium of the cells was replaced after the irradiation period with fresh medium and the cells were incubated for 24 additional hours. The cell viability was determined by means of the Neutral Red dye, measuring the optical density at 540 nm in a spectrophotometer.
The photoprotecting efficacy was determined by comparing the viability obtained in the cells treated with 7-methoxy-6-palmitoyl-2,2-dimethylchromane in relation to the response of the irradiated and non-irradiated control cells.

The test system of a further assay is mushroom tyrosinase. Kind of assay: Activity assay on the action of mushroom tyrosinase in vitro (L-Dopa substrate, melanin read at 492 nm). Format: biochemical. Particulars: melanin formed normalized to control sample (100), 10 min at 37° C. On the procedure: The assay is performed in 96 well plates and the samples are performed in triplicate. The control sample contains 80 μL of buffer (150 mM HEPES), 10 μL of mushroom tyrosinase of 10 μg/μL and 10 μL of 10 mM L-Dopa substrate. […] The samples thus prepared are incubated at 37° C. for 10 minutes. Then the plate containing the samples is cooled for 5 minutes on ice to stop the enzymatic reaction. To quantify the melanin produced it is measured in the plate reader at a length of 492 nm.

Regarding `CCCCCCCCCCCCCCCC(=O)c1cc2c(cc1OC)OC(C)(C)CC2` [7-methoxy-6-palmitoyl-2,2-dimethylchromane], the “% MELANIN” value was determined as 57.0% in assay [1] and 63.0% in the assay on mushroom tyrosinase (1 mM compound). For the same compound, the “% DEPIGMENTING EFFICACY” value in the assay with human melanocytes is 45.9%. The “PHOTOPROTECTTNG EFFICACY” value in the assay with human keratinocytes (viability of treated cells compared with irradiated and non-irradiated control cells) is 254.9%. Also, in the assay on human keratinocytes (Homo sapiens, Keratinocyte, light or radiation study, 1 h pre-incubation, irradiated 37 J/cm^2 for 150 min, 24 h later, non-irradiated control 100%, irradiated control 13.8%, read-out: CELL VIABILITY), the viability – broadly, a per cent measure of how many cells are alive, often set against a control – at 150 µg/mL was 49.1%.

Take `COc1cc2c(cc1O)CCC(C)(C)O2` [Lipochroman-6, 6-hydroxy-7-methoxy-2,2-dimethylchromane, reference compound]: the “% MELANIN” value came out at 79.8% in assay [1] and 96.6% in the assay on mushroom tyrosinase (1 mM compound).

Consider `O=c1cc(CO)occ1O` [Kojic acid, reference compound], for which, in the assay on human melanocytes, the “% DEPIGMENTING EFFICACY” value is 30.2%. The “% MELANIN” value with mushroom tyrosinase (0.1 mM compound) was found to be 44.5%.
